Reference: patent US20260284074A1, “ENT1 Inhibitors in Combination with Checkpoint Inhibitors” (iTeos Belgium SA, priority 2023, published 2026)

Columns and labels:
MDA-MB-231 cells = assay: MDA-MB-231 subcutaneous tumor model in humanized NCG mice; format: in vivo, mouse; conditions: day 51; Compound 1 30 mg/kg i.p. twice a day; nivolumab 10 mg/kg i.p. every 5 days
Protocol: The anti-tumor therapeutic efficacy of Compound 1 monotherapy, nivolumab monotherapy, and Compound 1-nivolumab combination therapy was assessed in ‘humanized’ mice with subcutaneous tumors resulting from the subcutaneous injection of MDA-MB-231 cells, a human triple-negative breast cancer cell line.
Human cell line xenograft experiments were performed at Transcure (France) and all associated animal procedures were reviewed and approved by the local ethics committee. The experiment was carried out with the NOD-Prkdc^em26cd52Il2rg^em26cd22/NjuCrl immunodeficient mouse strain (NCG from Charles River Laboratories, Wilmington, MA, USA). Four-week-old immunodeficient NCG mice were engrafted with cord-blood-derived human CD34^+ hematopoietic stem and progenitor cells (French Blood Institute, Paris, France) 2 days after chemical myeloablative treatment. Fourteen weeks after cell injection, engraftment level was monitored with the analysis of human CD45^+ cells among total blood leukocytes by flow cytometry (Attune, Life Technologies/Thermo Fisher Scientific, Waltham, MA, USA). […]
All the animals used were monitored daily, checking their clinical signs of distress and body weight and tumors were measured three times a week using an electronic caliper. The tumor volume was determined by applying the formula Length×(Width)^2×0.5. […]

[1] = Dynamic vapor sorption (DVS); format: physicochemical
Protocol: (§1) METHOD A: In Example 5, approximately 5-15 mg of sample was placed into a mesh vapor sorption balance pan and loaded into either a DVS Intrinsic or DVS Advantage dynamic vapor sorption balance by Surface Measurement Systems. The sample was subjected to a ramping profile from 40-90% relative humidity (RH) at 10% increments, maintaining the sample at each step until a stable weight had been achieved (dm/dt 0.004%, minimum step length 30 minutes, maximum step length 500 minutes) at 25° C. After completion of the sorption cycle, the sample was dried using the same procedure to 0% RH and then a second sorption cycle back to 40% RH was carried out. Two cycles were performed. The weight change during the sorption/desorption cycles were plotted, allowing the hygroscopic nature of the sample to be determined. XRPD analysis was then carried out on the residual solid.
as §1, with “B:” for “A:”, “1,” for “5,”, “10-20” for “5-15”, “determined.” for “determined. XRPD analysis was then carried out on the residual solid.”

human T cells [2] = assay: T cell proliferation by CFSE dilution in the presence of ATP; format: cell-based; conditions: human T cells activated in presence of 100 μM ATP, CFSE dilution, read-out: IC50, restoration of T cell proliferation
Protocol: Human T cells were activated in the presence of 100 μM ATP and dilazep or Compound 1 and proliferation was monitored by CarboxyFluoroscein Succinimidyl Ester (CFSE) dilution. […] (See FIG. 27B.)

human T cells [3] = assay: [3H]adenosine uptake in activated human T cells; format: cell-based
Description: Applicant observed that activated human T cells took up [3H]adenosine, and this uptake was reduced in the presence of the selective ENT1 inhibitor dilazep, confirming that ENT1 is the dominant transporter involved in adenosine uptake in T cells.
Human T cells were activated for 2 days in the presence of Compound 1 or dilazep. The cells were then washed and used in a [^3H]adenosine uptake experiment. […] (See FIG. 27A.)

nivolumab [anti-PD-1, reference compound]
Tumor volume compared with vehicle group (MDA-MB-231 cells): not statistically significantly different

COc1cc(C(=O)O[C@@H]2CCCOc3cc(cc(OC)c3OC)C(=O)NCCCN3CCCN(CC2)CC3)cc(OC)c1OC (single isomer, unassigned)
Moisture uptake (DVS) ([1]; RH raised to 80% from 10%, 25° C.): 1.7%
Moisture uptake (DVS) ([1]; between 0 and 10% RH, 25° C.): about 6.3%

COc1cc(C(=O)OCCCN2CCCN(CCCOC(=O)c3cc(OC)c(OC)c(OC)c3)CC2)cc(OC)c1OC [dilazep]
IC50 (human T cells [2]): 2.4 nM
IC50 (human T cells [3]; Homo sapiens, T-cell, T cells activated 2 days in presence of compound, washed, [3H]adenosine uptake, read-out: IC50, inhibition of uptake of adenosine into human T cells): 1.2 nM
[3H]adenosine uptake by activated human T cells (human T cells [3]; in the presence of the inhibitor): reduced

COc1cc(C(=O)O[C@@H]2CCCOc3cc(cc(OC)c3OC)C(=O)NCCCN3CCCN(CC2)CC3)cc(OC)c1OC
Water uptake (DVS) ([1]; at 80% RH, second sorption cycle, after likely formation of amorphous material): 3.3%
Water uptake (DVS) ([1]; between 40-80% RH, first sorption cycle): 0.9%
Hygroscopicity (DVS) ([1]; first sorption cycle, 25° C.): slightly hygroscopic
Water uptake (DVS) ([1]; further uptake between 80-90% RH, first sorption cycle): 3.8%
